Patent US4235902A, “Pesticidal carbamate esters of 5-oximino-1,3-oxazolidin-4-ones” (priority 1976, dated 1980)

Key:
[1] = tested on: southern armyworm (Prodenia eridania, (Cram.)); test: Southern armyworm leaf spray test; assay type: in vivo; design: key: A: excellent control; B: partial control; C: no control; conditions: 500 parts per million, larvae, three days
Protocol: (§1) Suspensions of the test compounds were prepared by dissolving one gram of compound in 50 milliliters of acetone in which had been dissolved 0.1 gram (10 percent of the weight of compound) of an alkylphenoxy polyethoxyethanol surfactant, as an emulsifying or dispersing agent. The resulting solution was mixed into 150 milliliters of water to give roughtly 200 milliliters of a suspension containing the compound in finely divided form. The thus-prepared stock suspension contained 0.5 percent by weight of compound. The test concentrations in parts per million by weight employed in the tests described hereinbelow were obtained by appropriate dilutions of the stock suspension with water. The test procedures were as follows:
SOUTHERN ARMYWORM LEAF SPRAY TEST
Larvae of the southern armyworm (Prodenia eridania, (Cram.)), reared on Tendergreen bean plants at a temperature of 80±5° F. and a relative humidity of 50±5 per cent, constituted the test insects.
The test compounds were formulated by diluting the stock suspension with water to give a suspension containing 500 parts of test compound per million parts of final formulation. Potted Tendergreen bean plants of standard height and age were placed on a revolving turntable and sprayed with 100-110 milliliters of test compound formulation by use of a DeVilbiss spray gun set at 10 psig air pressure. This application, which lasted 25 seconds, was sufficient to wet plants to run-off. As a control, 100-110 milliliters of a water-acetone-emulsifier solution containing no test compound were also sprayed on infested plants. When dry, the paired leaves were separated and each one was placed in a 9 centimeter Petri dish lined with moistened filter paper. Five randomly selected larvae were introduced into each dish and the dishes were closed. The closed dishes were labeled and held at 80°-85° F. for three days. Although the larvae could easily consume the whole leaf within twenty-four hours, no more food was added. Larvae which were unable to move the length of the body, even upon stimulation by prodding, were considered dead. Per cent mortality was recorded for various concentration levels.
(§2) In these tests the pesticidal activity of the compounds against aphid, mite, Southern Armyworm, Mexican Bean Beetle, nematodes and house fly was rated as follows: […]

[2] = tested on: two-spotted mite (Tetranychus urticae Koch); test: Mite foliage spray test; assay type: in vivo; design: key: A: excellent control; B: partial control; C: no control; conditions: 500 parts per million, six days
Protocol: as §1
Adults and nymphal stages of the two-spotted mite (Tetranychus urticae Koch), reared on Tendergreen bean plants at 80±5 per cent relative humidity, were the test organisms. Infested leaves from a stock culture were placed on the primary leaves of two bean plants six to eight inches in height, growing in a two-and-a-half inch clay pot. 150-200 Mites, a sufficient number for testing, transferred from the excised leaves to the fresh plants in a period of twenty four hours. Following the twenty four hour transfer period, the excised leaves were removed from the infested plants. The test compounds were formulated by diluting the stock suspension with water to give a suspension containing 500 parts of test compound per million parts of final formulation. The potted plants (one pot per compound) were placed on a revolving turntable and sprayed with 100-110 milliliters of test compound formulation by use of a DeVilbiss spray gun set at 40 psig. air pressure. This application, which lasted 25 seconds, was sufficient to wet the plants to run-off. As a control, 100-110 milliliteres of a water solution containing acetone and emulsifier in the same concentrations as the test compound formulation, but containing no test compound, were also sprayed on infested plants. The sprayed plants were held at 80±5 per cent relative humidity for six days, after which a mortality count of motile forms was made. Microscopic examination for motile forms was made on the leaves of the test plants. Any individual which was capable of locomotion upon prodding was considered living.
as §2

[3] = tested on: Mexican bean beetle (Epilachna varivestis, Muls.); test: Mexican bean beetle leaf spray test; assay type: in vivo; design: key: A: excellent control; B: partial control; C: no control; conditions: 500 parts per million, fourth instar larvae, three days
Protocol: as §1
MEXICAN BEAN BEETLE LEAF SPRAY TEST
Fourth instar larvae of the Mexican bean beetle (Epilachna varivestis, Muls.), reared on Tendergreen bean plants at a temperature of 80±5° F. and 50±5 per cent relative humidity, were the test insects.
The test compounds were formulated by diluting the stock suspension with water to give a suspension containing 500 parts of test compound per million parts of final formulation. Potted Tendergreen bean plants of standard height and age were placed on a revolving turntable and sprayed with 100-110 milliliters of test compound formulation by use of a DeVilbiss spray gun set at 10 psig air pressure. This application, which lasted 25 seconds, was sufficient to wet plants to run-off. As a control 100-110 milliliters of a water-acetone-emulsifier solution containing no test compound were also sprayed on infested plants. When dry, the paired leaves were separated and each was placed in a 9 centimeter Petri dish lined with moistened filter paper. Five randomly selected larvae were introduced into each dish, and the dishes were closed. The closed dishes were labeled and held at a temperature of 80±5° F. for three days. Although the larvae could easily consume the leaf within 24 to 48 hours, no more food was added. Larvae which were unable to move the length of the body, even upon stimulation, were considered dead.
as §2

[4] = Acute oral (peroral) toxicity to mammals; conditions: in vivo, rat, mortality rate of 50 percent
Protocol: Certain of these compositions were also evaluated to determine their peroral toxicity to mammals. The animal selected for this experiment was the rat. The test results obtained are expressed in terms of the number of milligrams of compositions per kilogram of weight of the animal required to achieve a mortality rate of 50 percent (LD50).

[5] = tested on: house flies (Musca domestica, L.); test: Fly bait test; assay type: in vivo; design: key: A: excellent control; B: partial control; C: no control; conditions: 500 parts per million in sugar bait; twenty four hours
Protocol: as §1
Four to six day old adult house flies (Musca domestica, L.), reared according to the specifications of the Chemical Specialities Manufacturing Association (Blue Book, McNair-Dorland Co., N. Y. 1954; pages 243-244, 261) under controlled conditions of 80±5° F. and 50±5 per cent relative humidity, were the test insects. The flies were immobilized by anesthetizing with carbon dioxide and twenty five immobilized individuals, males and females, were transferred to a cage consisting of a standard food strainer about five inches in diameter which was inverted over a wrapping-paper-covered surface. The test compounds were formulated by diluting the stock suspension with a 10 per cent (by weight) sugar solution to give a suspension containing 500 parts of test compound per million parts of final formulation, by weight. Ten milliliters of the test formulation were added to a souffle cup containing a one-inch square of an absorbent cotton pad. This bait cup was introduced and centered on the blotting paper under the food strainer prior to admitting the anesthetized flies. The caged flies were allowed to feed on the bait for twenty four hours, at a temperature of 80±5° F. and the relative humidity of 50±5 per cent.
as §2

[6] = tested on: bean aphid (Aphis fabae Scop.); test: Bean aphid foliage spray test; assay type: in vivo; design: key: A: excellent control; B: partial control; C: no control; conditions: 500 parts per million, 24 hour
Protocol: as §1
BEAN APHID FOLIAGE SPRAY TEST
Adults and nymphal stages of the bean aphid (Aphis fabae Scop.) reared on potted dwarf nasturtium plants at 64°-70° F. and 50-70 per cent relative humidity, constituted the test insects. For testing purposes, the number of aphids per pot was standardized to 100-150 by trimming plants containing excess aphids.
The test compounds were formulated by diluting the stock suspension with water to give a suspension containing 500 parts of test compound per million parts of final formulation.
The potted plants (one pot per compound tested) infested with 100-150 aphids, were placed on a revolving turntable and sprayed with […] of test compound formulation by use of a DeVilbiss spray gun set at 40 psig. air pressure. This application, which lasted 25 seconds, was sufficient to wet the plants to run-off. As a control, 100-110 milliliters of a water-acetone-emulsifier solution containing no test compound were also sprayed on infested plants. After spraying, the pots were placed on their sides on a sheet of white standard mimeograph paper which had been previously ruled to facilitate counting. Temperature and humidity in the test room during the 24 hour holding period were 65°-70° F. and 50-70 per cent, respectively. Aphids which fell onto the paper and were unable to remain standing after being uprighted were considered dead. Aphids remaning on the plants were observed closely for movement and those which were unable to move the length of the body upon stimulation by prodding were considered dead. Per cent mortality was recorded for various concentration levels.
as §2

[7] = tested on: root-knot nematode, Meloidogyne incognita var. acrita; test: Nematocide test; assay type: in vivo; design: key: A: excellent control; B: partial control; C: no control; conditions: 3.33 m.g. per jar; galling of cucumber roots rated after approximately 3 weeks
Protocol: The test organism used was the infective migratory larvae of the root-knot nematode, Meloidogyne incognita var. acrita, reared in the greenhouse on roots of cucumber plants. Infected plants were removed from the culture, and the roots are chopped very finely. A small amount of this inoculum was added to a pint jar containing approximately 180 cc. of soil. The jars were capped and incubated for one week at room temperature. During this period eggs of the nematode were hatched, and the larval forms migrated into the soil.
Ten ml. of the test formulation were added to each of the two jars for each dosage tested. Following the addition of chemical, the jars were capped, and the contents thoroughly mixed on a ball mill for 5 minutes.
The test compounds were formulated by a standard procedure of solution in acetone addition of an emulsifier, and dilution with water. Primary screening tests were conducted at 3.33 m.g. of the test compound per jar.
The jars were left capped at room temperature for a period of 48 hours, and the contents then transferred to 3 inch pots. Subsequently, the pots were seeded to cucumber as an indicator crop and placed in the greenhouse where they were cared for in the normal fashion for approximately 3 weeks.
The cucumber plants were then taken from the pots, the soil removed from the roots, and the amount of galling visually rated.
as §2

SMILES	Biological Activity: Southern Army Worm [1]	Biological Activity: Mite [2]	Biological Activity: Bean Beetle [3]	LD50 [4] [mg/kg]	Biological Activity: Housefly [5]	Biological Activity: Aphid [6]	Biological Activity: Nematode [7]
CCC1COC(=NOC(=O)NC)C(=O)N1C (centres unmarked)	A	A	C	23.8	A	A	C
CN1CCOC(=NOC(=O)N(C)SC(Cl)(Cl)Cl)C1=O [2-[N-Trichloromethanesulfenyl-N-methylcarbamoyloximino]-4-methyltetrahydro-1,4-oxazin-3-one]	C	B	A		A	A	A
CCN1CCOC(=NOC(=O)NC)C1=O	C	A	C		A	A	C
CNC(=O)ON=C1OCC(C)(C)N(C)C1=O	C	A	A	126	A	A	A
CNC(=O)ON=C1OCCN(C)C1=O [2-Methylcarbamoyloximino-4-methyltetrahydro1,4-oxazin-3-one]	A	A	A	343	A	A	A
CCC1COC(=NOC(=O)N(C)SC(Cl)(Cl)Cl)C(=O)N1C (centres unmarked)	C	A	A		A	A	A
CNC(=O)ON=C1OC(C)CN(C)C1=O (centres unmarked) [2-Methylcarbamoyloximino-4,-6-dimethyltetrahydro-1,4-oxazin-3-one]	A	A	A		A	A	A
CCCN1CCOC(=NOC(=O)NC)C1=O	A	A	B		A	A	C
CN(SC(Cl)(Cl)Cl)C(=O)ON=C1OCC(C)(C)N(C)C1=O [2-[N-Trichloromethanesulfenyl-N-methyl/carbamoyloximino]-4,5,5-trimethyltetrahydro, -1,4-oxazin-3-one]	C	A	B	794	A	A	
CNC(=O)ON=C1OCCN(C(C)C)C1=O	C	C	C		A	A	
